Test results reported in article PMC12569736 (Journal of Cosmetic Dermatology, 2025).
Read-outs that look alike come from different tables or passages of the source.

Columns and labels:
[1] = DPPH radical scavenging assay
Method: A DPPH radical scavenging assay kit (Solarbio) was used to assess antioxidant activity, following the manufacturer's instructions. Briefly, 10 μL of each test compound at the indicated concentrations was mixed with 190 μL DPPH solution in a 96‐well plate. Control wells (10 μL compound + 190 μL ethanol) and blank wells (10 μL solvent + 190 μL ethanol) were included. The reaction mixtures were gently shaken and incubated for 30 min at room temperature in the dark. Absorbance was measured at 515 nm using a Synergy H1 Hybrid Reader.
A DPPH radical scavenging assay was conducted to evaluate the antioxidant activity of KT‐939 at various concentrations, with a maximum concentration of 10 mM in a 5‐fold dilution series. Data represent mean ± standard deviation of three independent experiments.

B16‐F10 cells = test: Cell viability, B16‐F10; format: cell-based, murine; conditions: B16‐F10, 72 h, up to 50 μM
Method: (§1) B16‐F10, MNT‐1, and HaCaT cells (5000 cells/well) were seeded into 96‐well plates and incubated overnight. Culture medium (50 μL) containing varying concentrations of KT‐939 was added to each well, and cells were incubated for 72 h. Cell viability was assessed using the Cell Viability Assay Kit (Vazyme Biotech), following the manufacturer's instructions. Luminescence was measured using a Synergy H1 Hybrid Reader. DMSO‐treated cells served as the control, and survival rates were calculated and analyzed with GraphPad software.
(§2) B16‐F10, MNT‐1, and HaCaT cells were incubated with different concentrations of KT‐939 for 72 h. Cell viability was assessed and normalized to the DMSO‐treated control group.

[2] = system: NRF2/ARE signaling pathway; test: NRF2/ARE‐luciferase reporter assay in HEK293T cells; format: cell-based, human; conditions: 10 µM, 48 h, relative to DMSO
Method: The NRF2‐responsive firefly luciferase reporter plasmid (pGL4.27_ARE NRF2‐SPE) and Renilla luciferase control plasmid (pRL‐TK) were co‐transfected into HEK293T cells using Lipofectamine 2000. After 24 h, transfected cells were seeded into 96‐well plates and incubated overnight. Test compounds (10 μM) were added, and cells were incubated for an additional 48 h. Luciferase activities were measured using the Dual‐Lumi Luciferase Reporter Assay Kit (Beyotime Biotechnology), following the manufacturer's instructions.
FIGURE 6 KT‐939 activates the ARE/NRF2 signaling pathway. HEK293T cells transfected with an NRF2‐responsive firefly luciferase reporter were treated with 10 µM of KT‐939, hydroquinone (Hq), 377, or 4‐butylresorcinol for 48 h. Luminescence signals were normalized to renilla and expressed relative to DMSO control. *** p < 0.001 vs DMSO.

[3] = system: LPS‐stimulated RAW264.7 cells; test: RT‐qPCR of inflammatory cytokines in LPS‐stimulated RAW264.7 cells; format: cell-based, mouse; conditions: 3, 10 or 30 μM pretreatment 2 h, then 100 ng/mL LPS 16 h, vs LPS group
Method: RAW264.7 cells were treated with KT‐939 at concentrations of 3, 10, or 30 μM and incubated for 2 h. After pretreatment, cells were stimulated with 100 ng/mL LPS for an additional 16 h. Total RNA was extracted using the MiniBEST RNA Extraction Kit (Takara Bio) per the manufacturer's protocol. Reverse transcription and SYBR Green‐based qPCR were performed with ABScript II One Step RT‐qPCR Kit (Abclonal). RT‐PCR primer sequences were as follows: (Mouse) TNF‐α sense: 5‐[…]‐3, antisense: 5‐[…]‐3; (Mouse) IL‐6 sense: 5‐[…]‐3, antisense: 5‐[…]‐3; (Mouse) IL‐1α sense: 5‐[…]‐3, antisense: 5‐[…]‐3; (Mouse) GAPDH sense: 5‐[…]‐3, antisense: 5‐[…]‐3; Expression of target gene mRNA was normalized to GAPDH, and results were analyzed using GraphPad software.
RAW264.7 cells were pre‐treated with different concentrations of KT‐939, followed by the addition of 100 ng/mL LPS for 16 h. mRNA levels of TNF‐α, IL‐6, and IL‐1α were quantified by RT‐PCR and compared to the LPS‐induced group (*p < 0.05, **p < 0.01, ***p < 0.001).

MNT‐1 cells [4] = test: Wash‐out assay, melanin content in MNT‐1 cells after drug withdrawal; format: cell-based, human; conditions: for inhibition at 1 µM / inhibition at 10 µM: Homo sapiens, read-out: melanin inhibition rate after washout; for inhibition at 1 µM: MNT-1, 1 μM for 6 days; for inhibition at 10 µM: MNT-1, 10 μM for 6 days
Method: MNT‐1 cells were treated with 1 or 10 μM KT‐939 for six days, after which the drug‐containing medium was replaced with standard culture medium. Melanin content was measured at various time points.
FIGURE 4 The inhibitory effect of KT‐939 on melanin production is reversible. MNT‐1 cells were exposed to 1 or 10 μM of KT‐939 for 6 days, followed by drug washout and replacement with normal medium. Melanin content was measured at specified time points. Data represent the mean ± standard deviation of three independent experiments.

MNT‐1 cells [5] = test: Cell viability, MNT‐1; format: cell-based, human; conditions: MNT‐1, 72 h, up to 50 μM
Method: as §1, §2

`CC1(C(=O)Nc2nc(-c3ccc(O)cc3O)cs2)COC1` [KT‐939, N‐(4‐(2,4‐Dihydroxyphenyl) Thiazol‐2‐yl)‐3‐Methyloxetane‐3‐Carboxamide] showed a DPPH clearance rate ([1]; 0.4 mM) of 8.9%, a DPPH clearance rate ([1]; 2 mM) of 20.2% and a DPPH clearance rate ([1]; 10 mM) of 43.2%. The DPPH clearance rate ([1]; as summed up in the discussion, concentration not given) was “exceeding 40%”, the “cytotoxicity (cell viability)” value (B16‐F10 cells) was “no significant cytotoxicity” and the “NRF2 signaling pathway activation (luciferase reporter)” value [2] was “significantly enhanced the NRF2 signaling pathway”. The “IL‐1α mRNA level” value [3] was “dose‐dependent decrease”, the “IL‐6 mRNA level” value [3] was “dose‐dependent decrease” and the “TNF‐α mRNA level” value [3] was “dose‐dependent decrease”. The “melanin inhibition after washout” value (MNT‐1 cells [4]; 1 μM for 6 days, after seven days) was “returning to baseline”, the “melanin content after washout” value (MNT‐1 cells [4]; 10 μM for 6 days, after 11 days of drug withdrawal) was “fully returned to normal levels” and the inhibition at 1 µM (MNT‐1 cells [4]; day 3 after washout) was 38%. It also gave an inhibition at 1 µM (MNT‐1 cells [4]; day 5 after washout) of 28.3%, an inhibition at 10 µM (MNT‐1 cells [4]; day 3 after washout) of 66.6% and an inhibition at 10 µM (MNT‐1 cells [4]; day 5 after washout) of 52.7%. For the same compound, the inhibition at 10 µM (MNT‐1 cells [4]; day 7 after washout) was 21.3%, the inhibition at 10 µM (MNT‐1 cells [4]; day 9 after washout) was 20% and the “cytotoxicity (cell viability)” value (MNT‐1 cells [5]) was “no significant cytotoxicity”.
